The source of these data is US12312332B2 (Merck Sharp & Dohme LLC., priority 2019, dated 2025).

Each structure is given as a SMILES string.

The test has as its target T1, human OX2R (Homo sapiens, UniProt O43614).
T1 construct: expressed in transfected cells; host or cells: Chinese hamster ovary (CHO) cells, kept under G418 selection
T1 sequence (O43614 1-444): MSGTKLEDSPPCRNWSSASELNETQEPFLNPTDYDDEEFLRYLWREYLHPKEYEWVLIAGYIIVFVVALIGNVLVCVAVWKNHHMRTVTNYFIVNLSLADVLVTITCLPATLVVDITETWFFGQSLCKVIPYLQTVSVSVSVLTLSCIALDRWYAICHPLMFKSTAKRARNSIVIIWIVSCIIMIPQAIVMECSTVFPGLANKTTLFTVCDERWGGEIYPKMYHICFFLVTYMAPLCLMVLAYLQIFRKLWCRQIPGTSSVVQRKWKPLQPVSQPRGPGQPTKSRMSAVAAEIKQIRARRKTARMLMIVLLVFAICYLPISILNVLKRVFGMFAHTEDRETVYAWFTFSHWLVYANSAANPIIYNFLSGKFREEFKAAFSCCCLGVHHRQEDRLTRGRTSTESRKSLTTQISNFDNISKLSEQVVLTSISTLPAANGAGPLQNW
The experiment in a line: IPOne (IP-One) orexin receptor agonist assay in CHO cells expressing human OX2R. The test is classed as cell-based. Particulars: for EC50: CHO cells expressing human OX2R, IP-One detection, 2 hours incubation, four parameter logistic fit, read-out: OX2R Potency, EC50; for % max agonist effect (Emax): human OX2R, percentage of sample raw value/mean max effect (reference compound at 1 uM with 100% activity).

The term EC50 denotes the concentration needed to bring the measured effect to its halfway point. `CS(=O)(=O)N[C@H]1CCN(c2cnc3oncc3c2)[C@H]1CO[C@H]1CC[C@@H](c2ccccc2)CC1` [Example 90, N-((2R,3S)-1-(isoxazolo[5,4-b]pyridin-5-yl)-2-((((CIS)-4-phenylcyclohexyl)oxy)methyl)pyrrolidin-3-yl)methanesulfonamide]: the EC50 was 930 nM and the “% max agonist effect (Emax)” value was 87.6%.
The like results for `CS(=O)(=O)N[C@H]1CCN(c2cnc3ccoc3c2)[C@H]1CO[C@H]1CC[C@@H](c2ccccc2)CC1` [Example 91, N-((2R,3S)-1-(furo[3,2-b]pyridin-6-yl)-2-((((CIS)-4-phenylcyclohexyl)oxy)methyl)pyrrolidin-3-yl)methanesulfonamide] were, in that order, 803 nM and 99.0%.
For `CS(=O)(=O)N[C@H]1CCN(c2cnc3occc3c2)[C@H]1CO[C@H]1CC[C@@H](c2ccccc2)CC1` [Example 92, N-((2R,3S)-1-(furo[2,3-b]pyridin-5-yl)-2-((((CIS)-4-phenylcyclohexyl)oxy)methyl)pyrrolidin-3-yl)methanesulfonamide], the EC50 amounted to 326 nM and the “% max agonist effect (Emax)” value was 100.2%.
The matching figures for `COC[C@@H]1C[C@H](NS(=O)(=O)N(C)C)[C@H](CO[C@H]2CC[C@@H](c3cccc(F)c3)CC2)N1c1cc(O)c(F)cn1` [Example 93, N′-((2R,3S,5S)-1-(5-fluoro-4-hydroxypyridin-2-yl)-2-((((CIS)-4-(3-fluorophenyl)cyclohexyl)oxy)methyl)-5-(methoxymethyl)pyrrolidin-3-yl)-N,N-dimethyl-sulfamide]: 0.45 nM and 101.9%.
The matching figures for `C[C@@H]1C[C@H](NS(=O)(=O)N(C)C)[C@H](CO[C@H]2CC[C@@H](c3cccc(F)c3)CC2)N1c1cc(O)c(F)cn1` [Example 94, N′-((2R,3S,5R)-1-(5-fluoro-4-hydroxypyridin-2-yl)-2-((((CIS)-4-(3-fluorophenyl)cyclohexyl)oxy)methyl)-5-methylpyrrolidin-3-yl)-N,N-dimethyl-sulfamide]: 0.3 nM and 99.6%.
The like results for `C[C@@H]1C[C@H](NS(=O)(=O)N(C)C)[C@H](CO[C@H]2CC[C@@H](c3cccc(F)c3)CC2)N1c1cc(O)c(Cl)cn1` [Example 95, N′-((2R,3S,5R)-1-(5-chloro-4-hydroxypyridin-2-yl)-2-((((CIS)-4-(3-fluorophenyl)cyclohexyl)oxy)methyl)-5-methylpyrrolidin-3-yl)-N,N-dimethyl-sulfamide] were, in that order, 0.23 nM and 100.5%.
As to `CS(=O)(=O)N[C@H]1CCN(c2nccc(O)c2F)[C@H]1CO[C@H]1CC[C@@H](c2cccc(F)c2)CC1` [Example 96, N-((2R,3S)-1-(3-fluoro-4-hydroxypyridin-2-yl)-2-((((CIS)-4-(3-fluorophenyl)cyclohexyl)oxy)methyl)pyrrolidin-3-yl)methanesulfonamide], the EC50 was found to be 0.23 nM and the “% max agonist effect (Emax)” value is recorded as 101.6%.
The matching figures for `CS(=O)(=O)N[C@H]1CCN(c2cc(O)c(Cl)cn2)[C@H]1CO[C@H]1CC[C@@H](c2cccc(F)c2)CC1` [Example 97, N-((2R,3S)-1-(5-chloro-4-hydroxypyridin-2-yl)-2-((((CIS)-4-(3-fluorophenyl)cyclohexyl)oxy)methyl)pyrrolidin-3-yl)methanesulfonamide]: 0.6 nM and 100.9%.
The like results for `CS(=O)(=O)N[C@H]1CCN(c2ncc(Cl)c(O)c2F)[C@H]1CO[C@H]1CC[C@@H](c2cccc(F)c2)CC1` [Example 98, N-((2R,3S)-1-(5-chloro-3-fluoro-4-hydroxypyridin-2-yl)-2-((((CIS)-4-(3-fluorophenyl)cyclohexyl)oxy)methyl)pyrrolidin-3-yl)methanesulfonamide] were, in that order, 0.76 nM and 101.4%.
The matching figures for `CS(=O)(=O)N[C@H]1CCN(c2cc(O)c(F)cn2)[C@H]1CO[C@H]1CC[C@@H](c2cccc(F)c2)CC1` [Example 99, N-((2R,3S)-1-(5-fluoro-4-hydroxypyridin-2-yl)-2-((((CIS)-4-(3-fluorophenyl)cyclohexyl)oxy)methyl)pyrrolidin-3-yl)methanesulfonamide]: 0.27 nM and 101.2%.
For `COc1c(F)cnc(N2CC[C@H](NS(C)(=O)=O)[C@@H]2CO[C@H]2CC[C@@H](c3cccc(F)c3)CC2)c1F` [Example 100, N-((2R,3S)-1-(3,5-difluoro-4-methoxypyridin-2-yl)-2-((((CIS)-4-(3-fluorophenyl)cyclohexyl)oxy)methyl)pyrrolidin-3-yl)methanesulfonamide], the EC50 was 716 nM and the “% max agonist effect (Emax)” value turned out to be 99.6%.
The matching figures for `CS(=O)(=O)N[C@H]1CCN(c2ncc(F)c(O)c2F)[C@H]1CO[C@H]1CC[C@@H](c2ccccc2)CC1` [Example 101, N-((2R,3S)-1-(3,5-difluoro-4-hydroxypyridin-2-yl)-2-((((CIS)-4-phenylcyclohexyl)oxy)methyl)pyrrolidin-3-yl)methanesulfonamide]: 2 nM and 100.5%.
The matching figures for `CS(=O)(=O)N[C@H]1CCN(c2ncc(CO)s2)[C@H]1CO[C@H]1CC[C@@H](c2ccccc2)CC1` [Example 102, N-((2R,3S)-1-(5-(hydroxymethyl)thiazol-2-yl)-2-((((CIS)-4-phenylcyclohexyl)oxy)methyl)pyrrolidin-3-yl)methanesulfonamide]: 4830 nM and 67.4%.
The matching figures for `COC(=O)c1csc(N2CC[C@H](NS(C)(=O)=O)[C@@H]2CO[C@H]2CC[C@@H](c3ccccc3)CC2)n1` [Example 103, methyl 2-((2R,3S)-3-(methylsulfonamido)-2-((((CIS)-4-phenylcyclohexyl)oxy)methyl)pyrrolidin-1-yl)thiazole-4-carboxylate]: 1190 nM and 93%.
Turning to `COC(=O)c1cnc(N2CC[C@H](NS(C)(=O)=O)[C@@H]2CO[C@H]2CC[C@@H](c3ccccc3)CC2)s1` [Example 104, methyl 2-((2R,3S)-3-(methylsulfonamido)-2-((((CIS)-4-phenylcyclohexyl)oxy)methyl)pyrrolidin-1-yl)thiazole-5-carboxylate], the concentration for a half-maximal effect (EC50) was determined as 1190 nM and the “% max agonist effect (Emax)” value is given as 100%.
The matching figures for `Cc1sc(N2CC[C@H](NS(C)(=O)=O)[C@@H]2CO[C@H]2CC[C@@H](c3ccccc3)CC2)nc1O` [Example 105, N-((2R,3S)-1-(4-hydroxy-5-methylthiazol-2-yl)-2-((((CIS)-4-phenylcyclohexyl)oxy)methyl)pyrrolidin-3-yl)methanesulfonamide]: 703 nM and 97.9%.
The like results for `Cc1sc(N2CC[C@H](NS(C)(=O)=O)[C@@H]2CO[C@H]2CC[C@@H](c3ccccc3)CC2)nc1Br` [Example 106, N-((2R,3S)-1-(4-bromo-5-methylthiazol-2-yl)-2-((((CIS)-4-phenylcyclohexyl)oxy)methyl)pyrrolidin-3-yl)methanesulfonamide] were, in that order, 1700 nM and 98.0%.
